Data on 37 compounds can be found in patent US20050043378A1, “LTA4H modulators” (priority 2003, published 2005).

Where a name gives a salt, the structure may show the parent alone.

This test concerns the target T1, recombinant human LTA4 hydrolase (rhLTA4H) (Homo sapiens, UniProt P09960).
T1 construct: made in house; host or cells: Spodoptera frugiperda (Sf-9) cells, baculovirus (pFastBac1)
T1 sequence (P09960 1-611): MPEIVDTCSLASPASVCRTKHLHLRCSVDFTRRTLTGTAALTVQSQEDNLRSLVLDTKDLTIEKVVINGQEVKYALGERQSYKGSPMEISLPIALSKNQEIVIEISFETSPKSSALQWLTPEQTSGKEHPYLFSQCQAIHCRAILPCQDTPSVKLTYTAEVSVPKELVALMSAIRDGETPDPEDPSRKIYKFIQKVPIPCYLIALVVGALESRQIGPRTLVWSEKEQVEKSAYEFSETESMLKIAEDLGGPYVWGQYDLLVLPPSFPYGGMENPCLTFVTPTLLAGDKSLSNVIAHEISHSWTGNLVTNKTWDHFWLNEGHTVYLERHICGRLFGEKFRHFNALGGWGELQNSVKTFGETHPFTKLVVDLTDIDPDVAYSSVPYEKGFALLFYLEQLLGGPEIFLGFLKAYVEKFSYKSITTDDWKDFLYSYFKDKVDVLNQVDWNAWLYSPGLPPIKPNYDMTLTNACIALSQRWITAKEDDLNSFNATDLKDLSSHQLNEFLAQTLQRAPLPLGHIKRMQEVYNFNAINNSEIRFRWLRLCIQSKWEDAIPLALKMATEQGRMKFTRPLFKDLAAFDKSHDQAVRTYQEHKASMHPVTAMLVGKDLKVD
Kind of test: Recombinant human LTA4 hydrolase assay for LTA4 hydrolase inhibitor activity.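 Also: enzyme expressed in Sf-9 insect cells, compound preincubated 10 min with enzyme, 10 min reaction at room temperature, uninhibited reaction as positive control, enzyme-free blank as negative control.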 It counts as biochemical. To be noted: LTA4 substrate, LTB4 by immunoassay, average of one to three determinations.
On to `OCC1CCCN(CCOc2ccc(Oc3nc4ccccc4s3)cc2)C1` (stereo not shown) [Example 265, (1-{2-[4-(Benzothiazol-2-yloxy)-phenoxy]-ethyl}-piperidin-3-yl)-methanol], for which the IC50 – broadly, the concentration that inhibits the measured activity by half – came out at 112 nM.
To `O=C(O)CN1CCN(Cc2ccc(Oc3nc4ccccc4s3)cc2)CC1` [Example 366, {4-[4-(Benzothiazol-2-yloxy)-benzyl]-piperazin-1-yl}-acetic acid] belongs 39 nM.
The value for `O=C(Cc1ccccc1)NC1CCN(CCc2ccc(Oc3nc4ccccc4s3)cc2)CC1` [Example 110, N-(1-{2-[4-(Benzothiazol-2-yloxy)-phenyl]-ethyl}-piperidin-4-yl)-2-phenyl-acetamide] was 40 nM.
Consider `NC(=O)CCN(CCc1ccc(Oc2nc3ccccc3s2)cc1)C1CC1` [Example 214, 3-({2-[4-(Benzothiazol-2-yloxy)-phenyl]-ethyl}-cyclopropyl-amino)-propionamide], for which the half-inhibitory concentration (IC50) is 18 nM.
The value for `CCN(CC)CCOc1ccc(Oc2nc3ccc(Cl)cc3s2)cc1` [Example 12, {2-[4-(6-Chloro-benzothiazol-2-yloxy)-phenoxy]-ethyl}-diethyl-amine] was 100 nM; that for `O=C(CN1CCN(CCOc2ccc(Oc3nc4ccccc4s3)cc2)CC1)N1CCCC1` [Example 153, 2-(4-{2-[4-(Benzothiazol-2-yloxy)-phenoxy]-ethyl}-piperazin-1-yl)-1-pyrrolidin-1-yl-ethanone] was 8 nM.
`CCOC(=O)C1CCN(CCOc2ccc(Oc3nc4ccccc4[nH]3)cc2)CC1` [Example 485, 1-{2-[4-(1H-Benzoimidazol-2-yloxy)-phenoxy]-ethyl}-piperidine-4-carboxylic acid ethyl ester]: the IC50 was determined as 39 nM.
The value for `O=C(O)C1CC1CN(CCc1ccc(Oc2nc3ccccc3s2)cc1)C1CC1` (stereo not shown) [Example 211, 2-[({2-[4-(Benzothiazol-2-yloxy)-phenyl]-ethyl}-cyclopropyl-amino)-methyl]-cyclopropanecarboxylic acid] was 9 nM; that for `CN(C1CCN(Cc2ccc(Oc3nc4ccccc4s3)cc2)CC1)S(C)(=O)=O` [Example 255, N-{1-[4-(Benzothiazol-2-yloxy)-benzyl]-piperidin-4-yl}-N-methyl-methanesulfonamide] was 1 nM.
For the compound `CCN(CC)Cc1ccc(Oc2nc3ccccc3s2)cc1` [Example 294, [4-(Benzothiazol-2-yloxy)-benzyl]-diethyl-amine], the IC50 is 6 nM.
The value for `O=C1NCCC12CCN(CCOc1ccc(Oc3nc4ccccc4s3)cc1)CC2` [Example 25, 8-{2-[4-(Benzothiazol-2-yloxy)-phenoxy]-ethyl}-2,8-diaza-spiro[4.5]decan-1-one] was 4 nM; that for `O=S(=O)(c1ccc(Cl)cc1)N(C1CC1)C1CCN(CCOc2ccc(Oc3nc4ccccc4s3)cc2)CC1` [Example 168, N-(1-{2-[4-(Benzothiazol-2-yloxy)-phenoxy]-ethyl}-piperidin-4-yl)-4-chloro-N-cyclopropyl-benzene sulfonamide] was 27 nM.
To `CC(C)(C)OC(=O)N1CCC(c2nnnn2CCOc2ccc(Oc3nc4ccccc4s3)cc2)CC1` [Example 176, 4-(1-{2-[4-(Benzothiazol-2-yloxy)-phenoxy]-ethyl}-1H-tetrazol-5-yl)-piperidine-1-carboxylic acid tert-butyl ester] belongs 12 nM; to `c1ccc(Cn2nnnc2C2CCN(CCOc3ccc(Oc4nc5ccccc5s4)cc3)CC2)cc1` [Example 143, 2-(4-{2-[4-(1-Benzyl-1H-tetrazol-5-yl)-piperidin-1-yl]-ethoxy}-phenoxy)-benzothiazole], 64 nM; to `NC1CCC1C(=O)NCC1CCN(Cc2ccc(Oc3nc4ccccc4s3)cc2)CC1` (stereo not shown) [Example 285, 2-Amino-cyclobutanecarboxylic acid {1-[4-(benzothiazol-2-yloxy)-benzyl]-piperidin-4-ylmethyl}-amide dihydrochloride], 76 nM.
To `Oc1ccc(N2CCN(CCOc3ccc(Oc4nc5ccccc5s4)cc3)CC2)cc1` [Example 167, 4-(4-{2-[4-(Benzothiazol-2-yloxy)-phenoxy]-ethyl}-piperazin-1-yl)-phenol] belongs 37 nM; to `NC(=S)NC1CCN(Cc2ccc(Oc3nc4ccccc4s3)cc2)CC1` [Example 479, {1-[4-(Benzothiazol-2-yloxy)-benzyl]-piperidin-4-yl}-thiourea], 7 nM.
As for `c1ccc2oc(Oc3ccc(CN4CCCCC4)cc3)nc2c1` [Example 271, 2-(4-Piperidin-1-ylmethyl-phenoxy)-benzooxazole], the IC50 was found to be 2 nM.
To `O=C(O)[C@@H]1CCCN(CCc2ccc(Oc3nc4ccccc4s3)cc2)C1` [Example 183, (R)-1-{2-[4-(Benzothiazol-2-yloxy)-phenyl]-ethyl}-piperidine-3-carboxylic acid] belongs 18 nM; to `c1ccc2sc(Oc3ccc(OCCN4CCC(N5CCCCC5)CC4)cc3)nc2c1` [Example 80, 1′-{2-[4-(Benzothiazol-2-yloxy)-phenoxy]-ethyl}-[1,4′]bipiperidine], 23 nM; to `c1ccc2oc(Oc3ccc(OCCN4CCC4)cc3)nc2c1` [Example 77, 2-[4-(2-Azetidin-1-yl-ethoxy)-phenoxy]-benzooxazole], 10 nM.
Consider `CN(C)CCCOc1ccc(Oc2nc3ccccc3o2)cc1` [Example 45, {3-[4-(Benzooxazol-2-yloxy)-phenoxy]-propyl}-dimethyl-amine], for which the IC50 came to 15 nM.
Turning to `c1ccc2sc(Oc3ccc(CCN4CCN(CCN5CCOCC5)CC4)cc3)nc2c1` [Example 146, 2-(4-{2-[4-(2-Morpholin-4-yl-ethyl)-piperazin-1-yl]-ethyl}-phenoxy)-benzothiazole], the IC50 worked out at 43 nM.
On to `CCN(CCO)Cc1ccc(Oc2nc3ccccc3s2)cc1` [Example 287, 2-{[4-(Benzothiazol-2-yloxy)-benzyl]-ethyl-amino}-ethanol], for which the IC50 is 28 nM.
To `OC1(c2ccc(Cl)cc2)CCN(CCOc2ccc(Oc3nc4ccccc4o3)cc2)CC1` [Example 59, 1-{2-[4-(Benzooxazol-2-yloxy)-phenoxy]-ethyl}-4-(4-chloro-phenyl)-piperidin-4-ol] belongs 5 nM; to `O=C(O)[C@@H]1CCCC[C@H]1NCCc1ccc(Oc2nc3ccccc3s2)cc1` [Example 225, (1 R,2R)-2-{2-[4-(Benzothiazol-2-yloxy)-phenyl]-ethylamino}-cyclohexanecarboxylic acid], 25 nM.
To `O=C(C1CCN(CCOc2ccc(Oc3nc4ccccc4s3)cc2)CC1)N1CCN(CCO)CC1` [Example 195, (1-{2-[4-(Benzothiazol-2-yloxy)-phenoxy]-ethyl}-piperidin-4-yl)-[4-(2-hydroxy-ethyl)-piperazin-1-yl]-methanone] belongs 58 nM; to `O=C(O)CCC1CCN(CCc2ccc(Oc3nc4ccccc4s3)cc2)CC1` [Example 202, 3-(1-{2-[4-(Benzothiazol-2-yloxy)-phenyl]-ethyl}-piperidin-4-yl)-propionic acid], 4 nM.
Turning to `CCN(CCc1ccc(Oc2nc3ccccc3[nH]2)cc1)C1CCCCC1` [Example 123, {2-[4-(1H-Benzoimidazol-2-yloxy)-phenyl]-ethyl}-cyclohexyl-ethyl-amine], the 50% inhibitory concentration (IC50) stood at 4 nM.
To `OC1CCN(CCCc2ccc(Oc3nc4ccccc4o3)cc2)CC1` [Example 36, 1-{3-[4-(Benzooxazol-2-yloxy)-phenyl]-propyl}-piperidin-4-ol] belongs 14 nM.
As for `O=C(Cc1ccccc1)NC1CCN(CCOc2ccc(Oc3nc4ccccc4o3)cc2)CC1` [Example 78, N-(1-{2-[4-(Benzooxazol-2-yloxy)-phenoxy]-ethyl}-piperidin-4-yl)-2-phenyl-acetamide], the IC50 worked out at 3 nM.
To `c1ccc2sc(Oc3ccc(CCN(CCCc4nn[nH]n4)C4CC4)cc3)nc2c1` [Example 389, {2-[4-(Benzothiazol-2-yloxy)-phenyl]-ethyl}-cyclopropyl-[3-(2H-tetrazol-5-yl)-propyl]-amine] belongs 2 nM; to `O=C(O)CN1CCN(CCOc2ccc(Oc3nc4ccccc4s3)cc2)CC1` [Example 163, (4-{2-[4-(Benzothiazol-2-yloxy)-phenoxy]-ethyl}-piperazin-1-yl)-acetic acid], 9 nM.
To `OC1(c2ccccc2)CCN(CCOc2ccc(Oc3nc4ccccc4[nH]3)cc2)CC1` [Example 37, 1-{2-[4-(1H-Benzoimidazol-2-yloxy)-phenoxy]-ethyl}-4-phenyl-piperidin-4-ol] belongs 10 nM; to `c1ccc2sc(Oc3ccc(OCCn4cnnn4)cc3)nc2c1` [Example 224, 2-[4-(2-Tetrazol-1-yl-ethoxy)-phenoxy]-benzothiazole], 14 nM; to `O=C(O)CCCCCN(CCc1ccc(Oc2nc3ccccc3s2)cc1)C1CC1` [Example 419, 6-({2-[4-(Benzothiazol-2-yloxy)-phenyl]-ethyl}-cyclopropyl-amino)-hexanoic acid], 4 nM.
In the case of `NC(=O)C1CCN(CCOc2ccc(Cc3nc4ccccc4s3)cc2)CC1` [Example 147, 1-[2-(4-Benzothiazol-2-ylmethyl-phenoxy)-ethyl]-piperidine-4-carboxylic acid amide], the IC50 amounted to 33 nM.
